Assays:
Assay in all cases: relative viability (nuclei count vs DMSO), 5 days (fraction); higher = more cells survive
NCI-H2405 = system: NCI-H2405
How it was run: (§1)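 Relative viability was taken as the ratio of nuclei in treated wells to nuclei in vehicle wells. Lung cancer cell lines in 1536-well plates received compounds by pin tool one day after seeding, either one drug alone or a fixed anchor-drug dose plus five library-drug doses (not always all listed) in √10 steps. Nuclei were counted on 4× images after 5 days of treatment, and values are medians of duplicate plates.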

NCI-H2170 = system: NCI-H2170
How it was run: as §1

PC-14 = system: PC-14
How it was run: as §1

EPLC-272H = system: EPLC-272H
How it was run: as §1

SW 900 = system: SW 900
How it was run: as §1

NCI-H441 = system: NCI-H441
How it was run: as §1

RERF-LC-KJ = system: RERF-LC-KJ
How it was run: as §1

NCI-H1993 = system: NCI-H1993
How it was run: as §1

COR-L23 = system: COR-L23
How it was run: as §1

NCI-H3122 = system: NCI-H3122
How it was run: as §1

NCI-H1563 = system: NCI-H1563
How it was run: as §1

LOU-NH91 = system: LOU-NH91
How it was run: as §1

NCI-H647 = system: NCI-H647
How it was run: as §1

NCI-H2347 = system: NCI-H2347
How it was run: as §1

NCI-H520 = system: NCI-H520
How it was run: as §1

HCC-44 = system: HCC-44
How it was run: as §1

NCI-H1650 = system: NCI-H1650
How it was run: as §1

ABC-1 = system: ABC-1
How it was run: as §1

NCI-H2023 = system: NCI-H2023
How it was run: as §1

NCI-H1734 = system: NCI-H1734
How it was run: as §1

201T = system: 201T
How it was run: as §1

NCI-H2085 = system: NCI-H2085
How it was run: as §1

NCI-H1793 = system: NCI-H1793
How it was run: as §1

EKVX = system: EKVX
How it was run: as §1

SMILES: COc1cc(N2CCC(C(N)=O)CC2)ccc1Nc1nc(N)c(Cl)c(Nc2ccccc2S(=O)(=O)C(C)C)n1 [HG-5-88-01] + N=C(N)NC(=N)NCCc1ccccc1 [Phenformin] (partner 250 µM)
- relative viability (NCI-H2405; first compound 0.04 µM): 0.46
- relative viability (NCI-H2405; first compound 0.1265 µM): 0.484
- relative viability (NCI-H2405; first compound 0.4 µM): 0.469
- relative viability (NCI-H2405; first compound 1.265 µM): 0.38
- relative viability (NCI-H2405; first compound 4 µM): 0.432
- relative viability (NCI-H2170; first compound 0.04 µM): 0.466
- relative viability (NCI-H2170; first compound 0.1265 µM): 0.442
- relative viability (NCI-H2170; first compound 0.4 µM): 0.461
- relative viability (NCI-H2170; first compound 1.265 µM): 0.304
- relative viability (NCI-H2170; first compound 4 µM): 0.352
- relative viability (PC-14; first compound 0.04 µM): 0.65
- relative viability (PC-14; first compound 0.1265 µM): 0.522
- relative viability (PC-14; first compound 0.4 µM): 0.484
- relative viability (PC-14; first compound 1.265 µM): 0.212
- relative viability (PC-14; first compound 4 µM): 0.103
- relative viability (EPLC-272H; first compound 0.04 µM): 0.352
- relative viability (EPLC-272H; first compound 0.1265 µM): 0.34
- relative viability (EPLC-272H; first compound 0.4 µM): 0.274
- relative viability (EPLC-272H; first compound 1.265 µM): 0.253
- relative viability (EPLC-272H; first compound 4 µM): 0.0477
- relative viability (SW 900; first compound 0.04 µM): 0.592
- relative viability (SW 900; first compound 0.1265 µM): 0.545
- relative viability (SW 900; first compound 0.4 µM): 0.622
- relative viability (SW 900; first compound 1.265 µM): 0.671
- relative viability (SW 900; first compound 4 µM): 0.408
- relative viability (NCI-H441; first compound 0.04 µM): 0.835
- relative viability (NCI-H441; first compound 0.1265 µM): 0.789
- relative viability (NCI-H441; first compound 0.4 µM): 0.852
- relative viability (NCI-H441; first compound 1.265 µM): 0.589
- relative viability (NCI-H441; first compound 4 µM): 0.294
- relative viability (RERF-LC-KJ; first compound 0.04 µM): 0.421
- relative viability (RERF-LC-KJ; first compound 0.1265 µM): 0.4
- relative viability (RERF-LC-KJ; first compound 0.4 µM): 0.407
- relative viability (RERF-LC-KJ; first compound 1.265 µM): 0.371
- relative viability (RERF-LC-KJ; first compound 4 µM): 0.241
- relative viability (NCI-H1993; first compound 0.04 µM): 0.501
- relative viability (NCI-H1993; first compound 0.1265 µM): 0.471
- relative viability (NCI-H1993; first compound 0.4 µM): 0.438
- relative viability (NCI-H1993; first compound 1.265 µM): 0.558
- relative viability (NCI-H1993; first compound 4 µM): 0.527
- relative viability (COR-L23; first compound 0.04 µM): 0.458
- relative viability (COR-L23; first compound 0.1265 µM): 0.407
- relative viability (COR-L23; first compound 0.4 µM): 0.406
- relative viability (COR-L23; first compound 1.265 µM): 0.377
- relative viability (COR-L23; first compound 4 µM): 0.39
- relative viability (NCI-H3122; first compound 0.04 µM): 0.216
- relative viability (NCI-H3122; first compound 0.1265 µM): 0.17
- relative viability (NCI-H3122; first compound 0.4 µM): 0.146
- relative viability (NCI-H3122; first compound 1.265 µM): 0.129
- relative viability (NCI-H3122; first compound 4 µM): 0.15
- relative viability (NCI-H1563; first compound 0.04 µM): 0.7
- relative viability (NCI-H1563; first compound 0.1265 µM): 0.64
- relative viability (NCI-H1563; first compound 0.4 µM): 0.683
- relative viability (NCI-H1563; first compound 1.265 µM): 0.604
- relative viability (NCI-H1563; first compound 4 µM): 0.601
- relative viability (LOU-NH91; first compound 0.04 µM): 0.701
- relative viability (LOU-NH91; first compound 0.1265 µM): 0.721
- relative viability (LOU-NH91; first compound 0.4 µM): 0.664
- relative viability (LOU-NH91; first compound 1.265 µM): 0.421
- relative viability (LOU-NH91; first compound 4 µM): 0.416
- relative viability (NCI-H647; first compound 0.04 µM): 0.663
- relative viability (NCI-H647; first compound 0.1265 µM): 0.595
- relative viability (NCI-H647; first compound 0.4 µM): 0.624
- relative viability (NCI-H647; first compound 1.265 µM): 0.608
- relative viability (NCI-H647; first compound 4 µM): 0.643
- relative viability (NCI-H2347; first compound 0.04 µM): 0.295
- relative viability (NCI-H2347; first compound 0.1265 µM): 0.626
- relative viability (NCI-H2347; first compound 0.4 µM): 0.448
- relative viability (NCI-H2347; first compound 1.265 µM): 0.41
- relative viability (NCI-H2347; first compound 4 µM): 0.487
- relative viability (NCI-H520; first compound 0.04 µM): 0.441
- relative viability (NCI-H520; first compound 0.1265 µM): 0.67
- relative viability (NCI-H520; first compound 0.4 µM): 0.57
- relative viability (NCI-H520; first compound 1.265 µM): 0.431
- relative viability (NCI-H520; first compound 4 µM): 0.492
- relative viability (HCC-44; first compound 0.04 µM): 0.303
- relative viability (HCC-44; first compound 0.1265 µM): 0.156
- relative viability (HCC-44; first compound 0.4 µM): 0.201
- relative viability (HCC-44; first compound 1.265 µM): 0.159
- relative viability (HCC-44; first compound 4 µM): 0.0886
- relative viability (NCI-H1650; first compound 0.04 µM): 0.452
- relative viability (NCI-H1650; first compound 0.1265 µM): 0.386
- relative viability (NCI-H1650; first compound 0.4 µM): 0.254
- relative viability (NCI-H1650; first compound 1.265 µM): 0.236
- relative viability (NCI-H1650; first compound 4 µM): 0.259
- relative viability (ABC-1; first compound 0.04 µM): 0.272
- relative viability (ABC-1; first compound 0.1265 µM): 0.233
- relative viability (ABC-1; first compound 0.4 µM): 0.2
- relative viability (ABC-1; first compound 1.265 µM): 0.207
- relative viability (ABC-1; first compound 4 µM): 0.24
- relative viability (NCI-H2023; first compound 0.04 µM): 0.521
- relative viability (NCI-H2023; first compound 0.1265 µM): 0.466
- relative viability (NCI-H2023; first compound 0.4 µM): 0.473
- relative viability (NCI-H2023; first compound 1.265 µM): 0.411
- relative viability (NCI-H2023; first compound 4 µM): 0.34
- relative viability (NCI-H1734; first compound 0.04 µM): 0.345
- relative viability (NCI-H1734; first compound 0.1265 µM): 0.364
- relative viability (NCI-H1734; first compound 0.4 µM): 0.333
- relative viability (NCI-H1734; first compound 1.265 µM): 0.371
- relative viability (NCI-H1734; first compound 4 µM): 0.355
- relative viability (201T; first compound 0.04 µM): 0.54
- relative viability (201T; first compound 0.1265 µM): 0.452
- relative viability (201T; first compound 0.4 µM): 0.479
- relative viability (201T; first compound 1.265 µM): 0.547
- relative viability (201T; first compound 4 µM): 0.397
- relative viability (NCI-H2085; first compound 0.04 µM): 0.656
- relative viability (NCI-H2085; first compound 0.1265 µM): 0.799
- relative viability (NCI-H2085; first compound 0.4 µM): 0.685
- relative viability (NCI-H2085; first compound 1.265 µM): 0.622
- relative viability (NCI-H2085; first compound 4 µM): 0.395
- relative viability (NCI-H1793; first compound 0.1265 µM): 0.431
- relative viability (NCI-H1793; first compound 0.4 µM): 0.375
- relative viability (NCI-H1793; first compound 4 µM): 0.221
- relative viability (EKVX; first compound 0.04 µM): 0.276
- relative viability (EKVX; first compound 0.1265 µM): 0.262
- relative viability (EKVX; first compound 0.4 µM): 0.204
- relative viability (EKVX; first compound 4 µM): 0.226
